Reference: patent US20250018019A1, “TREATMENT OF INTERFERON DRIVEN INFLAMMATION” (The Provost, Fellows, Foundation Scholars and the other …, priority 2023, published 2025)
Structures can show the parent of a compound that is named as a salt.

Tested on: BMDMs
Assay: Proteomic analysis of BMDMs
Type: cell-based, mouse
Conditions: BMDMs pre-treated vs DMSO, LPS 4 h
Method: BMDMs (from 5 independent mice) were plated onto 10-cm dishes and treated as indicated. At the experimental endpoint, cells were washed with PBS on ice and centrifuged at 1500 rpm for 5 mins at 4° C. and frozen at -80° C. Cell pellets were lysed, reduced and alkylated in 50 μl of 6M Gu-HCl, 200 mM Tris-HCl PH 8.5, 10 mM TCEP, 15 mM Chloroacetamide by probe sonication and heating to 95° C. for 5 min. Protein concentration was measured by a Bradford assay and initially digested with LysC (Wako) with an enzyme to substrate ratio of 1/200 for 4 h at 37° C. Subsequently, the samples were diluted tenfold with water and digested with porcine trypsin (Promega) at 37° C. overnight. Samples were acidified to 1% TFA, cleared by centrifugation (16,000 g at RT) and approximately 20 μg of the sample was desalted using a Stage-tip. Eluted peptides were lyophilized, resuspended in 0.1% TFA/water and the peptide concentration was measured by A280 on a nanodrop instrument (Thermo). The sample was diluted to 2 μg/5 μl for subsequent analysis. The tryptic peptides were analysed on a Fusion Lumos mass spectrometer connected to an Ultimate Ultra3000 chromatography system (both Thermo Scientific) incorporating an autosampler. 2 μg of de-salted peptides were loaded onto a 50 cm emitter packed with 1.9 μm ReproSil-Pur 200 C18-AQ (Dr Maisch, Germany) using a RSLC-nano uHPLC systems connected to a Fusion Lumos mass spectrometer (both Thermo, UK). Peptides were separated by a 140 min linear gradient from 5% to 30% acetonitrile, 0.5% acetic acid. […] Raw files were analysed and quantified by searching against the Uniprot Mus Musculus database using DIA-NN 1.8 (https://github.com/[…]). […] Data were expressed as mean±standard error of the mean (SEM) unless stated otherwise. […] The proteomics cut-offs for analysis were a log2FC of 0.5 and a false discovery rate (FDR)<0.05, determined using t statistics. […] Overrepresentation analysis (ORA) of significant changes were assessed using Enrichr^4 and the Bioconductor package clusterProfiler 4.0 in R (version 3.6.1). […]

| Structure (SMILES) | GDF15 protein (proteomics) | SLC25A39 protein (proteomics) |
| --- | --- | --- |
| CCOC(=O)[C@@]12CCCC=C1N(Cc1ccc(-c3ccccc3)cc1)C(=O)[C@H]2CC(=O)NC [FHIN1, Fumarate hydratase-IN-1] | one of the most significantly increased proteins | increased |
| COC(=O)/C=C/C(=O)OC [DMF, dimethyl fumarate] | one of the most significantly increased proteins | – |
